ChEMBL document CHEMBL1201862, “PubChem BioAssay data set” (2004)
Active and inactive are the calls of the source.

Tests used:
[1] = test system: HEK293; assay: inhibition of NOD1-driven NF-kB reporter – cell-based, luminescence, uHTS, primary screen (AID 1578); type: functional; conditions: Homo sapiens
[2] = test system: HEK293; assay: cells; type: functional, cell-based; conditions: Homo sapiens
[3] = test system: HEK293; assay: cells; type: functional, cell-based; conditions: Homo sapiens; remark: listed apart in the source
[4] = molecular target: Nucleotide-binding oligomerization domain-containing protein 2 (Homo sapiens, UniProt Q9HC29); assay: inhibition of NOD2-driven NF-kB reporter – cell-based, luminescence, uHTS, HEK293 (AID 1566); type: functional
[5] = test system: HEK293; assay: NOD2 signaling inhibitors in MDP-stimulated cells, cell-based, uHTS, luminescence (AID 2001); type: functional; conditions: Homo sapiens
[6] = test system: HEK293; assay: cells; type: functional, cell-based; conditions: Homo sapiens; remark: listed apart in the source
[7] = molecular target: T1, Cysteine protease ATG4B (Homo sapiens, UniProt Q9Y4P1); type: functional;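 note: Fluorescence-based dose-response confirmation assay measuring inhibition of ATG4B activity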
T1 sequence (Q9Y4P1 whole entry): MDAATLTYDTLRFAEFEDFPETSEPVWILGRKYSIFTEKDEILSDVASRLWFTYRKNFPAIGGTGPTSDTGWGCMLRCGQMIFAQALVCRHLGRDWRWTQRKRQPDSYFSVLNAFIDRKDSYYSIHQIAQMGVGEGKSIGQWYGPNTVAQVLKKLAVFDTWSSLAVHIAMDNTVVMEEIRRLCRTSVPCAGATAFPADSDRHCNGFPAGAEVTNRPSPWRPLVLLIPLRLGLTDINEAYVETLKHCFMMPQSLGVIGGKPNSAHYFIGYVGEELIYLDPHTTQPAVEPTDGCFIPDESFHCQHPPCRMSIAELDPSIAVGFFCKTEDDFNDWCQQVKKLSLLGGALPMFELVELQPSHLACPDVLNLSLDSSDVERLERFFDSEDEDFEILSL

[8] = molecular target: Phospholipase A2 (Homo sapiens, UniProt P04054); type: functional;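 note: confirmatory dose-response counterscreen on phospholipase A2, testing hits that came from an ultra-high-throughput screen for ATG4B inhibitors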
[9] = molecular target: Eukaryotic translation initiation factor 4E (Mus musculus, UniProt P63073); assay: blockers of eIF4G binding by eIF4E – biochemical, TR-FRET, dose response (AID 855); type: functional;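 note: potency for disrupting eIF4E binding to eIF4GI seen as loss of FRET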
[10] = molecular target: T2, Replicative DNA helicase DnaB (Mycobacterium tuberculosis, UniProt P9WMR3); assay: DnaB intein splicing inhibitors, dose response, biochemical, cell-free fluorescence (AID 449749); type: functional
T2 sequence (P9WMR3 whole entry): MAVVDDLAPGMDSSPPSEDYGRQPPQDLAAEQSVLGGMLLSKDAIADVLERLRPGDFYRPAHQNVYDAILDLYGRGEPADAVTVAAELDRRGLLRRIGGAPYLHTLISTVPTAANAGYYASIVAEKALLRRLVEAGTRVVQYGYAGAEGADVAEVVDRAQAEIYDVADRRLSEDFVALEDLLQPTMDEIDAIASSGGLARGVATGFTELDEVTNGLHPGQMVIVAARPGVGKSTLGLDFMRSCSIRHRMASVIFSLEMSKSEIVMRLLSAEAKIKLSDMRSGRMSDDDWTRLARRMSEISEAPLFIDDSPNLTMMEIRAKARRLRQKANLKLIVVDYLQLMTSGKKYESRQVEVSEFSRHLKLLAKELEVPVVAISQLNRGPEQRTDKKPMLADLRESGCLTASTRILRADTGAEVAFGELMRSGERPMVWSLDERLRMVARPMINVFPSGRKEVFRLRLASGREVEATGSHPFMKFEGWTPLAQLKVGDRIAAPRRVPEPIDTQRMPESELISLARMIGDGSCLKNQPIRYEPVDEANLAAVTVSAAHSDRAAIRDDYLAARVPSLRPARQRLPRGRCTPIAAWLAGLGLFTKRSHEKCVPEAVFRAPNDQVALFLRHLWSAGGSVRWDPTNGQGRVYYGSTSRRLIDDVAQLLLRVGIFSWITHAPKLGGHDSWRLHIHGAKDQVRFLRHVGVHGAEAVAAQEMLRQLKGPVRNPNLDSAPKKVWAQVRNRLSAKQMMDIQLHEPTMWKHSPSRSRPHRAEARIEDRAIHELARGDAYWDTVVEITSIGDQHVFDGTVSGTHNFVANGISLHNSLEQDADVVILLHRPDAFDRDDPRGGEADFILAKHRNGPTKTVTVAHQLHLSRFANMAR

[11] = molecular target: T3, Protein RecA (Mycobacterium tuberculosis, UniProt P9WHJ3); assay: Fluorescence Cell-Free Homogeneous Dose Retest to Identify Inhibitors of RecA-Intein Splicing Activity. [Related pubchem assays (depositor defined):AID2097, AID2223, AID489010, AID492950]; type: functional
T3 sequence (P9WHJ3 whole entry): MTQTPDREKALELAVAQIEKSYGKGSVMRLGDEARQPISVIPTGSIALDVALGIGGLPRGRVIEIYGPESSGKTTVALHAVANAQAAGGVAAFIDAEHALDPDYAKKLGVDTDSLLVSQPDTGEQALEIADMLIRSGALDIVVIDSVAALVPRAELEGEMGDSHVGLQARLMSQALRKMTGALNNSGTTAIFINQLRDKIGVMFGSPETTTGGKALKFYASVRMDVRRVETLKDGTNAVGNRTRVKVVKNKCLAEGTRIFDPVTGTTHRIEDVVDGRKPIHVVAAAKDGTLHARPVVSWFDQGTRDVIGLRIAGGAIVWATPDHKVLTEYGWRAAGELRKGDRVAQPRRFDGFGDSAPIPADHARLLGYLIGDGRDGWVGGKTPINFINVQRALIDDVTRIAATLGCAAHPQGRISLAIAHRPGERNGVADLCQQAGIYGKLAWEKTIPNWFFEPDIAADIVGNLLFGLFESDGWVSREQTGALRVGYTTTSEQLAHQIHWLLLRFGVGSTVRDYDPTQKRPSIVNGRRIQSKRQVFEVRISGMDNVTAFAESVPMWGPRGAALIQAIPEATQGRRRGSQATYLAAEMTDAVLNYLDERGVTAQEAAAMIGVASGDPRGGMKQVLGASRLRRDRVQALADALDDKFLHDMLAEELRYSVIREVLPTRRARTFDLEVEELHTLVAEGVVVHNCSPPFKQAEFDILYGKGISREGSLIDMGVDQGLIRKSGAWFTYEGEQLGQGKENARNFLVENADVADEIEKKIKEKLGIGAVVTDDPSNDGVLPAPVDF

Nucleotide-binding oligomerization domain-containing protein 2, sequence (Q9HC29 whole entry, the tested form may be a part): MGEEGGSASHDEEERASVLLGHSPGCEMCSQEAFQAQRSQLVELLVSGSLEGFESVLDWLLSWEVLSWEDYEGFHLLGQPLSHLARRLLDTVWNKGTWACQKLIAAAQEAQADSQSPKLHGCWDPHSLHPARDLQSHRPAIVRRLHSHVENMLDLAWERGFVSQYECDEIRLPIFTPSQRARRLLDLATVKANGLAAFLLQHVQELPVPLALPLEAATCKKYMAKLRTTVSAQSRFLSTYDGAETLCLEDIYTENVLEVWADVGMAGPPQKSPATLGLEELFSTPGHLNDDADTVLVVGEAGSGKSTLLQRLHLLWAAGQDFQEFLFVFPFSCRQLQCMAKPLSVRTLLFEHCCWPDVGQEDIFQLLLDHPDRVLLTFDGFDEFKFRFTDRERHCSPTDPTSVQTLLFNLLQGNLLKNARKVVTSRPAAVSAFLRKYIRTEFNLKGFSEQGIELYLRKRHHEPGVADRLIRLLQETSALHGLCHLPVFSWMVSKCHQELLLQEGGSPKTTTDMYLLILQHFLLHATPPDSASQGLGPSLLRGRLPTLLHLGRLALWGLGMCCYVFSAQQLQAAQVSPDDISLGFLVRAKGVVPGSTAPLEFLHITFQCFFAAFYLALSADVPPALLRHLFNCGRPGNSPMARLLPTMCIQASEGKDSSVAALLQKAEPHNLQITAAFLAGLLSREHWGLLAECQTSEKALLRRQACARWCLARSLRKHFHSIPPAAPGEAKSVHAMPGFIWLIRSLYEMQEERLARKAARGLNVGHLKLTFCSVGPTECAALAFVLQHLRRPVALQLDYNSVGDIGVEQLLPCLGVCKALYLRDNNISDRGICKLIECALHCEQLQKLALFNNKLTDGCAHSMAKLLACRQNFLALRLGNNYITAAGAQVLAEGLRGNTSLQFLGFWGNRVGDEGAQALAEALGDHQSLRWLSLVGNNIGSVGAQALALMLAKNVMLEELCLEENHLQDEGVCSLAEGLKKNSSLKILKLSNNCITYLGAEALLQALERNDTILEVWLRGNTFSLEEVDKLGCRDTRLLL
Eukaryotic translation initiation factor 4E, sequence (P63073 whole entry): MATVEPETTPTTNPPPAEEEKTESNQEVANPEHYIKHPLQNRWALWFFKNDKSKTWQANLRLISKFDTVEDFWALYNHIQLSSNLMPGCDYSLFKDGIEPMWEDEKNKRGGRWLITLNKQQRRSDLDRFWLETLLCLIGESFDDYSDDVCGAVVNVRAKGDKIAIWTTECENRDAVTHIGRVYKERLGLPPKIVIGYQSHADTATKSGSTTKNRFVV
Phospholipase A2, sequence (P04054 whole entry): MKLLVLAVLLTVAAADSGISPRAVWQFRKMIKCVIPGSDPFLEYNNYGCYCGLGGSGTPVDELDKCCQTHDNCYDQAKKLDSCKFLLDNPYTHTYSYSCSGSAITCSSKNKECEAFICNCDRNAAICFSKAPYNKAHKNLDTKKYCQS

Structure (SMILES) | EC50 [1] | IC50 [2] | IC50 [3] | EC50 [4] | IC50 [5] | IC50 [6] | IC50 [7] | IC50 [8] | IC50 [9] | AC50 [10] | EC50 [11]
Cc1cc(C(=O)CSc2nnc(-c3ccco3)o2)c(C)n1-c1ccc2c(c1)OCCO2 | 5.37 µM (active) | 13.3 µM (active) | > 20 µM (inactive) | > 20 µM (inactive) | 14.5 µM (inactive) | > 20 µM (inactive) | – | – | – | – | –
COc1ccc2nc(N3CCCCC3)c(/C=C3\SC(=S)NC3=O)cc2c1 | 2.17 µM (active) | 4.9 µM (active) | 19.5 µM (active) | 16.2 µM (active) | 4.26 µM (inactive) | > 20 µM (inactive) | 4.24 µM (active) | 2.47 µM (active) | – | – | –
N#Cc1c(Cl)c(Cl)c2nnc(-c3ccc(Br)cc3)n2c1Cl | – | – | – | – | – | – | – | – | > 64 µM (inactive) | 10.2 µM (active) | 9.3 µM (active)
